Assay results taken from patent publication US6458748B1, “Di- or tri-fluoromethanesulfonyl anilide derivatives, process for the preparation of them and herbicides containing them as the active ingredient” (Ihara Chemical Industry Co., Ltd., priority 1998, dated 2002).

Legend:
[1] = system: Echinochloa oryzicola vasing.; test: Test 3 herbicidal effect, application before germination or at 3-leaf stage; conditions: 28th day from application
[2] = system: Monochoria vaginalis (Burm. f.) Presl var. plantaginea (Roxb.) Solms-Laub.; test: Test 1 paddy pot herbicidal effect, water surface application; type: in vivo; conditions: applied day after sowing, evaluated 28 days later
Description: (§1) Standard of herbicidal effect (level of suppression of development and growth) […] Herbicidal effect of 90% or more, injury to paddy rice […] Herbicidal effect of 70% or more to less than 90%, injury to paddy rice […] 2: […]

[3] = system: Echinochloa oryzicola vasing.; test: as above; type: in vivo; conditions: applied day after sowing, evaluated 28 days later
Description: as §1

[4] = system: Sagittaria pygmaea Miq.; test: Test 2 paddy pot herbicidal effect with water drainage and feeding; type: in vivo; conditions: water drainage and feeding 2 cm per day for two days, 28th day
Description: (§2) Further, a tuber of Sagittaria pygmaea Miq. was buried. […] For two days starting from the next day, water drainage and feeding each of 2 cm in depth per day were conducted.

[5] = system: Monochoria vaginalis (Burm. f.) Presl var. plantaginea (Roxb.) Solms-Laub.; test: as above; type: in vivo; conditions: water drainage and feeding 2 cm per day for two days, 28th day
Description: as §2

Row | SMILES | Herbicidal effect (Ec) Application at 3-leaf stage ([1]; 0.3 g/10 ares) | Herbicidal effect (Ec) Application before germination ([1]; 0.3 g/10 ares) | Herbicidal effect (Ec) Application at 3-leaf stage ([1]; 0.6 g/10 ares) | Herbicidal effect (Ec) Application before germination ([1]; 0.6 g/10 ares) | Herbicidal effect (Ec) Application at 3-leaf stage ([1]; 1.3 g/10 ares) | Herbicidal effect (Ec) Application before germination ([1]; 1.3 g/10 ares) | Herbicidal effect (Ec) Application at 3-leaf stage ([1]; 2.5 g/10 ares) | Herbicidal effect (Ec) Application before germination ([1]; 2.5 g/10 ares) | Herbicidal effect (Ec) Application at 3-leaf stage ([1]; 5.0 g/10 ares) | Herbicidal effect (Ec) Application before germination ([1]; 5.0 g/10 ares) | Herbicidal effect Mo ([2]; 0.4 g/10 ares) | Herbicidal effect Mo ([2]; 1.6 g/10 ares) | Herbicidal effect Mo ([2]; 6.3 g/10 ares) | Herbicidal effect Mo ([2]; 25.0 g/10 ares) | Herbicidal effect Ec ([3]; 0.4 g/10 ares) | Herbicidal effect Ec ([3]; 1.6 g/10 ares) | Herbicidal effect Ec ([3]; 6.3 g/10 ares) | Herbicidal effect Ec ([3]; 25.0 g/10 ares) | also measured
1 | COCc1cccc(C(O)c2nc(OC)cc(OC)n2)c1NS(=O)(=O)C(F)F (centres unmarked) [Example 2, 2-[(4,6-dimethoxypyrimidine-2-yl)hydroxymethyl]-6-methoxymethyl-N-difluoromethanesulfonyl anilide] | 3 (Herbicidal effect of 50% or more to less than 70%, injury to paddy rice) | 4 (Herbicidal effect of 70% or more to less than 90%, injury to paddy rice) | 4 (Herbicidal effect of 70% or more to less than 90%, injury to paddy rice) | 5 (Herbicidal effect of 90% or more, injury to paddy rice) | 5 (Herbicidal effect of 90% or more, injury to paddy rice) | 5 (Herbicidal effect of 90% or more, injury to paddy rice) | 5 (Herbicidal effect of 90% or more, injury to paddy rice) | 5 (Herbicidal effect of 90% or more, injury to paddy rice) | 5 (Herbicidal effect of 90% or more, injury to paddy rice) | 5 (Herbicidal effect of 90% or more, injury to paddy rice) | 5 (Herbicidal effect of 90% or more, injury to paddy rice) | 5 (Herbicidal effect of 90% or more, injury to paddy rice) | 5 (Herbicidal effect of 90% or more, injury to paddy rice) | 5 (Herbicidal effect of 90% or more, injury to paddy rice) | 4 (Herbicidal effect of 70% or more to less than 90%, injury to paddy rice) | 5 (Herbicidal effect of 90% or more, injury to paddy rice) | 5 (Herbicidal effect of 90% or more, injury to paddy rice) | 5 (Herbicidal effect of 90% or more, injury to paddy rice) | 
2 | CCc1cccc(C(O)c2nc(OC)cc(OC)n2)c1NS(=O)(=O)C(F)F (centres unmarked) [Example 3, 2-[(4,6-dimethoxypyrimidine-2-yl)hydroxymethyl]-6-ethyl-N-difluoromethanesulfonyl anilide] | 2 (Herbicidal effect of 30% or more to less than 50%, injury to paddy rice) | 4 (Herbicidal effect of 70% or more to less than 90%, injury to paddy rice) | 4 (Herbicidal effect of 70% or more to less than 90%, injury to paddy rice) | 5 (Herbicidal effect of 90% or more, injury to paddy rice) | 5 (Herbicidal effect of 90% or more, injury to paddy rice) | 5 (Herbicidal effect of 90% or more, injury to paddy rice) | 5 (Herbicidal effect of 90% or more, injury to paddy rice) | 5 (Herbicidal effect of 90% or more, injury to paddy rice) | 5 (Herbicidal effect of 90% or more, injury to paddy rice) | 5 (Herbicidal effect of 90% or more, injury to paddy rice) | 5 (Herbicidal effect of 90% or more, injury to paddy rice) | 5 (Herbicidal effect of 90% or more, injury to paddy rice) | 5 (Herbicidal effect of 90% or more, injury to paddy rice) | 5 (Herbicidal effect of 90% or more, injury to paddy rice) | 4 (Herbicidal effect of 70% or more to less than 90%, injury to paddy rice) | 5 (Herbicidal effect of 90% or more, injury to paddy rice) | 5 (Herbicidal effect of 90% or more, injury to paddy rice) | 5 (Herbicidal effect of 90% or more, injury to paddy rice) | 
3 | COc1cc(OC)nc(C(O)c2ccccc2NS(=O)(=O)C(F)F)n1 (centres unmarked) [Example 1, 2-[(4,6-dimethoxypyrimidine-2-yl)hydroxymethyl]-N-difluoromethanesulfonyl anilide] | 0 (Herbicidal effect of less than 10%, injury to paddy rice) | 1 (Herbicidal effect of 10% or more to less than 30%, injury to paddy rice) | 1 (Herbicidal effect of 10% or more to less than 30%, injury to paddy rice) | 2 (Herbicidal effect of 30% or more to less than 50%, injury to paddy rice) | 2 (Herbicidal effect of 30% or more to less than 50%, injury to paddy rice) | 3 (Herbicidal effect of 50% or more to less than 70%, injury to paddy rice) | 4 (Herbicidal effect of 70% or more to less than 90%, injury to paddy rice) | 5 (Herbicidal effect of 90% or more, injury to paddy rice) | 5 (Herbicidal effect of 90% or more, injury to paddy rice) | 5 (Herbicidal effect of 90% or more, injury to paddy rice) | 5 (Herbicidal effect of 90% or more, injury to paddy rice) | 5 (Herbicidal effect of 90% or more, injury to paddy rice) | 5 (Herbicidal effect of 90% or more, injury to paddy rice) | 5 (Herbicidal effect of 90% or more, injury to paddy rice) | 1 (Herbicidal effect of 10% or more to less than 30%, injury to paddy rice) | 3 (Herbicidal effect of 50% or more to less than 70%, injury to paddy rice) | 4 (Herbicidal effect of 70% or more to less than 90%, injury to paddy rice) | 5 (Herbicidal effect of 90% or more, injury to paddy rice) | Herbicidal effect Sc ([4]; 0.6 g/10 ares): 2 (Herbicidal effect of 30% or more to less than 50%, injury to paddy rice); Herbicidal effect Sc ([4]; 1.3 g/10 ares): 5 (Herbicidal effect of 90% or more, injury to paddy rice); Herbicidal effect Sc ([4]; 2.5 g/10 ares): 5 (Herbicidal effect of 90% or more, injury to paddy rice); Herbicidal effect Sc ([4]; 5.0 g/10 ares): 5 (Herbicidal effect of 90% or more, injury to paddy rice); Herbicidal effect Ec ([5]; 0.6 g/10 ares): 2 (Herbicidal effect of 30% or more to less than 50%, injury to paddy rice); Herbicidal effect Ec ([5]; 1.3 g/10 ares): 4 (Herbicidal effect of 70% or more to less than 90%, injury to paddy rice); Herbicidal effect Ec ([5]; 2.5 g/10 ares): 5 (Herbicidal effect of 90% or more, injury to paddy rice); Herbicidal effect Ec ([5]; 5.0 g/10 ares): 5 (Herbicidal effect of 90% or more, injury to paddy rice)
